A word on the EC50: it is the midpoint of the concentration-response curve. As usually defined, the IC50 is the point on the concentration scale where inhibition reaches its midpoint. In general, inhibition refers to the relative decrease from the control value, in per cent.

Structures are written as SMILES. Where “and” joins values, the source holds several entries; their conditions need not be identical. Equal entries are not always repeated. Entries after “also recorded” stand apart in the source; their conditions may differ. Where two headings read alike, the source gives them in different places.

Data on six molecules can be found in patent US12291502B2, “Topoisomerase II-alpha inhibitors and methods of treating cancer using the same” (The Regents of the University of Colorado, priority 2019, dated 2025).

In test [1] the test system is vimentin promoter activity (VimPro-GFP) in SW620 cells. Briefly: VimPro-GFP EMT reporter assay. In general terms: Reporter assays use an easily measured gene product as a stand-in for the process of interest.
Protocol: VimPro-GFP and EcadPro-mCherry reporter assays. VimPiro-GFP: SW620 cells were first transduced with NucLight Red virus (Essen BioSciences) and selected with Zeocin at 200 μg/mL, and then transduced with pCDH-VimPro-GFP-EF1-puro virus and selected with puromycin at 4 μg/mL. The dual fluorescently labeled cells were plated and treated in 3D tumor organoid as described. Tumor organoid images were recorded every 2 hours over a 72 hours period using an incucyte ZOOM content imaging system (Essen BioSciences) or PerkinElmer Phenix imager (PerkinElmer).
Analogs were also assessed for their ability to modulate or reverse EMT using VimPro-GFP and EcadPro-RFP SW620 reporter cells cultured as tumor organoids, determining EC50 dose responses over 72 hours (Table 2).
VimPro-GFP and EcadPro-RFP reporter assays. Stable VimPro-GFP or EcadPro-RFP SW620 reporter cells were generated using pCDH-VimPro-GFP-EF1-puro virus or pCDH-EcadPro-mCherry-EF1-puro virus as previously reported. […] Transduced cells were selected with puromycin at 2 μg/mL. The stable fluorescent labeled reporter cells were then used to generate tumor organoids as described. Tumor organoids were then treated with TOP2A inhibitors at 10 μM for an additional 72 h. Following treatment, tumor organoids were stained with 16 μM of Hoechst 33342 for 1 h, which functions as a nuclear stain for imaging segmentation. Images were taken with a 5× air objective. Z stacks were set at 20 μm apart for a total of 7 layers. Imaging analysis was performed using an Opera Phenix high content screening (HCS) system and Harmony high-content imaging and analysis software interface (PerkinElmer, MA). Nuclei were identified with Hoechst 33342 stain within each layer, and cells were found with either GFP or mCherry channel. The intensities of each fluorescence channel within the cells were calculated and thresholds were set based on the background intensities. Percentages of GFP or mCherry positive cells were calculated and normalized to the DMSO treated group.
VimPro-GFP and EcadPro-RFP reporter assays. Stable VimPro-GFP or EcadPro-RFP SW620 reporter cells were generated using pCDH-VimPro-GFP-EF1-puro virus or pCDH-EcadPro-mCherry-EF1-puro virus as previously reported. […] Transduced cells were selected with puromycin at 2 μg/mL. The stable fluorescent labeled reporter cells were then used to generate tumor organoids as described. Tumor organoids were then treated with TOP2A inhibitors at 10 μM for an additional 72 h. Following treatment, tumor organoids were stained with 16 μM of Hoechst 33342 for 1 h, which functions as a nuclear stain for imaging segmentation. Images were taken with a 5× air objective.
Test [2] deals with TOP2A-dependent TCF-transcription in SW620-TOP tumor organoids. The experiment in a line: TCF (TOPflash) reporter assay in 3D tumor organoids. Type of test: cell-based. The settings on record: for IC50: 72 hours. As for the experimental part: TCF reporter assay in 3D Tumor organoid. Stable engineered cells containing pCDH-TOPflash-luc-EF1-puro were used to generate tumor organoid arrayed in 96-well plates and treated for 72 hours. One-Glo™ luciferase reagent and CellTiter-Glo™ 3D cell viability reagent (Promega) were used to determine the TCF reporter activity in viable cells.
After characterizing 3 and 7 as TOP2A ATP-competitive inhibitors, these compounds were next tested for their ability to inhibit TOP2A-dependent TCF-transcription using the well characterized TOPflash (TOP) luminescent reporter, which was used to generate a stably transduced SW620-TOP reporter cells as described previously (Zhou, et al., Oncogene 2016, 35:4990-9). These cells were used to generate single 3D tumor organoids (700 μm in diameter) uniformly arrayed in 96-well plates, which mimic aspects of tumor function observed in vivo. […] Like neo, the mode of action of compounds 3 and 7 also results in significant antitumor activity (FIGS. 3E-3H). […] In other words, the activity of 3 and 7 is long lasting, suppressing CSC stemness and related tumorigenicity. EMT is a major driving force promoting tumor cell invasion and metastasis. […] Tumor organoids were dissociated, and viable cells were washed and plated into the top chamber of 96-well invasion plate coated with Matrigel and incubated for an additional 72 hours without adding any additional compound. […] Taken together, the biological activity of 3 and 7 is consistent with the activity of neo, inhibiting TOP2A-dependent TCF-transcription that in turn reverses EMT while inhibiting the associated tumorigenic properties of mCRC.
A similar trend in IC50 values was observed compared to TOP2A enzyme studies, further supporting our proposed mechanism of action as inhibition of TOP2A-dependent TCF-transcription.
3D Tumor organoid TOPflash reporter assay. […] 35(38): p. 4990-9.] were used to generate tumor organoids arrayed in 96-well plates and treated for 72 h with TOP2A inhibitors. One-Glo™ luciferase reagent and CellTiter-Glo™ 3D cell viability reagent (Promega, WI) were used to determine the TCF reporter activity in viable cells. Briefly, reagents were added to the spheroids at 1:1 ratio (v:v) and the plates were placed on an orbital shaker (300 rpm) for 10 min at room temperature before the luminescence was read with Envision plate reader (PerkinElmer, MA). TCF reporter activity was normalized to organoid viability and inhibitors treated conditions were normalized to DMSO treated controls.

Test [3] deals with T1, Human TOP2A (Homo sapiens, UniProt P11388).
T1 construct: purchased TopoGEN (Buena Vista, CO)
The experiment in a line: TOP2A DNA decatenation assay (kDNA, agarose gel). The format is biochemical. The settings on record: for inhibition at 30 µM: 1 h, read-out: % Inhibition TOP2A (30 μM); for inhibition at 30 µM / % Inhibition TOP2A (30 μM): decatenation, 30 μM fixed concentration; for IC50: decatenation dose response; for TOP2A inhibition, result in words: decatenation screen at 30 μM. As for the experimental part:
Inhibition of TOP2A activity. Human TOP2A, kDNA, and assay buffers were obtained from TopoGEN (Buena Vista, CO). The synthesized compounds were screened for their TOP2A inhibitory activity by the intensity of DNA decatenation bands on a DNA gel when compared to the vehicle. Compounds were initially incubated with TOP2A (3 U/reaction) for 20 min at a 30 μM and 1.2% DMSO concentration in a 37° C. incubator without CO2.
The decatenation reaction was initiated immediately after by adding 2 mM ATP and 35 ng/reaction of kDNA, then incubated for 1 hour in a 37° C. water bath. The samples were loaded into a 0.8% agarose gel in 1× Tris-Borate-EDTA (TBE) at a 0.2 μg/mL ethidium bromide concentration and allowed to run in an electrophoretic chamber for 1 hour at 100V. Compounds with the highest inhibitory activity were selected for 2-fold serial dilution dose-response assays (58.6 nM-30 μM). The dose-response assays followed the same protocol with the exception of 4 U/reaction of TOP2A.
Inhibition studies of TOP2A and observed structure activity relationships (SAR). DNA catenation/decatenation or linking/unlinking of DNA is one of the main TOP2A functions essential for regulating DNA topology, and this is ATP dependent. […] Thus, as a starting point, the synthesized analogs were screened against TOP2A-dependent decatenation using 30 μM fixed concentrations, and the DNA from reactions were resolved on 0.8% agarose gels containing ethidium bromide.
Moreover, these studies provided interesting SAR, which shed light on the potential lead drug target binding interactions and affinity, biological activity, and future drug design optimization with this unique class of TOP2A inhibitors.
(§1) TOP2A decatenation assay. Human TOP2A, kDNA, and assay buffers were obtained from TopoGEN (Buena Vista, CO). The synthesized compounds were screened for their TOP2A inhibitory activity by the intensity of DNA decatenation bands on a DNA gel when compared to the vehicle. Compounds were initially incubated with TOP2A (3 U/reaction) for 20 min at a 30 μM and 1.2% DMSO concentration in a 37° C. incubator without CO2. The decatenation reaction was initiated immediately after by adding 2 mM ATP and 35 ng/reaction of kDNA, then incubated for 1 h in a 37° C. water bath. The samples were loaded into a 0.8% agarose gel in 1× Tris-Borate-EDTA (TBE) at a 0.2 μg/mL ethidium bromide concentration and allowed to run in an electrophoretic chamber for 1 h at 100V. Compounds with the highest inhibitory activity were selected for 2-fold serial dilution dose-response assays (58.6 nM-30 μM). The dose-response assays followed the same protocol with the exception of 4 U/reaction of TOP2A,
as §1, with “assays (53.6” for “assays (58.6”, “of TOP2A.” for “of TOP2A,”

Test [4] relates to E-cadherin promoter activity (EcadPro-RFP) in SW620 cells. The experiment in a line: EcadPro-RFP (mCherry) EMT reporter assay. Type of test: cell-based. The settings on record: SW620 tumor organoids; for EC50: Table 2, 72 hours, read-out: % E-cadherin upregulation EC50.
From the text: (§2) VimPro-GFP and EcadPro-RFP reporter assays. […] 35(38): p. 4990-9.]
as §2

[5] abbreviates: Homo sapiens, SW-620, 72 h, read-out: % Vimentin downregulation EC50 (μM).
Setting [6] is: Homo sapiens, SW-620, Table 2, SW620 tumor organoids, read-out: % TCP inhibition IC50.
Where [7] appears, read: read-out: IC50 TOP2A inhibition.
Where [8] appears, read: read-out: % Vimentin downregulation EC50, Table 2, SW620 tumor organoids, 72 hours.
Setting [9] is: SW620-TOP tumor organoids, read-out: IC50 inhibition of TCF-transcription.
Where [10] appears, read: Table 1, read-out: % Inhibition TOP2A (IC50 Values).

T1 sequence (P11388 whole entry): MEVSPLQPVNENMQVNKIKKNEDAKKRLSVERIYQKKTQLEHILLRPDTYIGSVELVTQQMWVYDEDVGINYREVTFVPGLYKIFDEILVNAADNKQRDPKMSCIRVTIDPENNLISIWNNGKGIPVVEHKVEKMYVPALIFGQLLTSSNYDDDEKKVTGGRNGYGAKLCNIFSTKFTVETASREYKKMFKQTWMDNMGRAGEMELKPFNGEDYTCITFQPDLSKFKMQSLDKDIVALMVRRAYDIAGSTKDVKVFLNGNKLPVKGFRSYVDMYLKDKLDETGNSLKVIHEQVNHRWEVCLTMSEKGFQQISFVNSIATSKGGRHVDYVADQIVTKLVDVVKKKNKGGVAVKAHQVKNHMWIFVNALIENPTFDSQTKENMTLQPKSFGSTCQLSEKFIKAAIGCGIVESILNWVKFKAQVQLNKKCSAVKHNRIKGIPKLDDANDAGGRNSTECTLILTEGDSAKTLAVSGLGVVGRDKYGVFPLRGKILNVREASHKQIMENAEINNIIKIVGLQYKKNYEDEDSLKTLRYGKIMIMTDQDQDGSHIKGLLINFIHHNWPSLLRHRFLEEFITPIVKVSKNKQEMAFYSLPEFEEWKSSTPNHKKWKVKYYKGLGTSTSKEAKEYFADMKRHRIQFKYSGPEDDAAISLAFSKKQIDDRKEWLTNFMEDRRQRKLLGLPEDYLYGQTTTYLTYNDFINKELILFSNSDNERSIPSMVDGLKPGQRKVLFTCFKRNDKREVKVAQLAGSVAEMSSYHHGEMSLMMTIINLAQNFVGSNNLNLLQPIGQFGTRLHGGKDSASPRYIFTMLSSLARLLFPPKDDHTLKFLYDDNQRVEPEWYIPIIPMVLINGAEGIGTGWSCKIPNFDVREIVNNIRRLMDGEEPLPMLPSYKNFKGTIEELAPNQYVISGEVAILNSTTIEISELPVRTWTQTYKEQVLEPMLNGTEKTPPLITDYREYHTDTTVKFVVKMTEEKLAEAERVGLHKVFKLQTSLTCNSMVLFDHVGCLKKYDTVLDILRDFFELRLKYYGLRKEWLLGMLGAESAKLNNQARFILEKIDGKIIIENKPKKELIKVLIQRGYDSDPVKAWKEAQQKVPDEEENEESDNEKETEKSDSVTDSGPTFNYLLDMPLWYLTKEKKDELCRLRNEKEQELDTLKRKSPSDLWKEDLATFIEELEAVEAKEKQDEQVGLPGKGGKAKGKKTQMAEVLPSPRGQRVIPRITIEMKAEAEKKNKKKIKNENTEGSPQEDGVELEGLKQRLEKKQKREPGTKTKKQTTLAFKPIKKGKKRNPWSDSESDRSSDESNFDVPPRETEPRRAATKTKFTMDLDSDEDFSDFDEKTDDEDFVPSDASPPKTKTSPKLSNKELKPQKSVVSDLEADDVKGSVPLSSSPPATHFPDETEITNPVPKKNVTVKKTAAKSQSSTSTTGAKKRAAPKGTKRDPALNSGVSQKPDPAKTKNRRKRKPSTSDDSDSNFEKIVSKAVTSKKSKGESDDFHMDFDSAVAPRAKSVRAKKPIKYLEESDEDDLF

Consider `CC(=O)Nc1ccc2c(-c3cc(F)ccc3O)ccnc2c1O` [Analog 7], for which the 50% effective concentration (EC50) was 10.8 µM in test [1] (setting [5]) and 5.3 µM in test [4] (Homo sapiens, SW-620). Also, the “vimentin downregulation (VimPro-GFP), in words” value in test [1] (SW620 tumor organoids) is “dose-dependent downregulation of vimentin”. Moreover, the IC50 in test [2] (setting [6]) was 6 µM; in test [3] (setting [7]), 5.81 µM and 5.8 µM. Besides, the “inhibition of TCF-transcription (TOP-activity), in words” value in test [2] (SW620 tumor organoids, TOPflash reporter) is “significantly inhibit TOP-activity; also recorded: significantly inhibit TOP2A-dependent TCF-transcription”. In addition, in test [3] (Table 1), the inhibition at 30 µM was found to be 99%. Moreover, the “TOP2A inhibition, result in words” value in test [3] is “complete enzyme inhibition”. Also, in test [4], the “E-cadherin upregulation (EcadPro-RFP), in words” value is on record as “upregulation of E-cadherin”.
`CC(=O)Nc1ccc(-c2ccnc3c(O)c(NC(C)=O)ccc23)cc1` [Analog 35]: the EC50 in test [1] (setting [8]) came out at 9.5 µM; in test [4], 5.5 µM. Besides, the half-maximal inhibitory concentration (IC50) is 2 µM in test [2] (setting [9]) and 1.9 µM in test [3] (setting [10]). For the same molecule, in test [3] (Table 1), the “% Inhibition TOP2A (30 μM)” value is recorded as 97.0%. Further, the “TOP2A inhibition, result in words” value in test [3] was “restored inhibitory activity against TOP2A”.
As to `CC(C)(C)C(=O)Nc1ccc2c(-c3ccccc3)ccnc2c1O` [Analog 39], the EC50 in test [1] (setting [8]) was determined as 4.7 µM; in test [4], 3.1 µM. For the same molecule, the IC50 was 4.7 µM in test [2] (Table 2, SW620 tumor organoids, read-out: % TCP inhibition IC50); 1.3 µM in test [3] (setting [10]); roughly 1 µM in test [3] (setting [7]). Also, in test [3] (Table 1), the “% Inhibition TOP2A (30 μM)” value came to 97.0%.
Take `O=C(CCN1CCOCC1)Nc1ccc2c(-c3cc(F)ccc3O)ccnc2c1O` [Analog 42]: the 50% effective concentration (EC50) was 13.2 µM in test [1] (setting [5]) and 5.9 µM in test [4] (Homo sapiens, SW-620). Further, the half-inhibitory concentration (IC50) in test [2] (setting [6]) was found to be 3.2 µM; in test [2] (setting [9]) it was 3.2 µM; in test [3] (setting [7]) it was 0.6 µM. Besides, in test [3] (Table 1), the inhibition at 30 µM came to 90%.
`CC(=O)Nc1ccc2c(-c3ccoc3)ccnc2c1O` [Analog 56]: the EC50 was 25.7 µM in test [1] (setting [5]) and 10.6 µM in test [4] (Homo sapiens, SW-620). Moreover, the IC50 in test [2] (setting [6]) worked out at 7 µM; in test [3] (setting [10]) it was 6.4 µM. The inhibition at 30 µM in test [3] (Table 1) is 86%.
For the molecule `Cn1ccc2c(c1=O)C(=O)c1nccc3c1C2NC1=CCC=CC13` (stereo not drawn) [neo, neoamphimedine, reference compound], the “TOP2A inhibition, result in words” value in test [3] was “significantly inhibits TOP2A mediated DNA decatenation”.
